Assay results as given in US7449617B2, “Plants with elevated levels of gallic acid/polyphenol oxidase and methods of generating such plants” (The Regents of the University of California, priority 2004, dated 2008).

Tested on: buffered rumen fluid
Assay: In vitro gas production technique: incubation of alfalfa hays in buffered rumen fluid with added tannins, net ammonium-N in supernatant
Set-up: species or system cows
Settings: for % Difference from control / Net ammonium-N in supernatant: 72 h; for Net ammonium-N in supernatant: 30 ml buffered rumen fluid, SD in parenthesis; for Effect on ammonia-N (in words): in vitro rumen fluid system, preliminary study
Experimental: A preliminary in vitro study was conducted to evaluate GA and TA (tannic acid) and to compare this with CT (a source of condensed tannins). The study utilized an in vitro gas production technique that has been established and validated at UC Davis. This system uses canulated cows as a rumen fluid donor. […] The reduction in protein degradation and ammonia nitrogen accumulation was dependant on type of tannins and levels used in each of the experiments. […] [table]

[1] = CUF101, tannin added at 2% DM, Experiment 1
[2] = CUF101, tannin added at 4% DM, Experiment 1
[3] = CUF101, tannin added at 5% DM, Experiment 2
[4] = CUF101, tannin added at 6% DM, Experiment 1
[5] = CUF101, tannin added at 10% DM, Experiment 2
[6] = CUF101, tannin added at 15% DM, Experiment 2
[7] = CUF101 alfalfa hay 200 mg, tannin added at 2% DM, Experiment 1
[8] = CUF101 alfalfa hay 200 mg, tannin added at 4% DM, Experiment 1
[9] = CUF101 alfalfa hay 200 mg, tannin added at 5% DM, Experiment 2
[10] = CUF101 alfalfa hay 200 mg, tannin added at 6% DM, Experiment 1
[11] = CUF101 alfalfa hay 200 mg, tannin added at 10% DM, Experiment 2
[12] = CUF101 alfalfa hay 200 mg, tannin added at 15% DM, Experiment 2
[13] = Sutter alfalfa hay 200 mg, tannin added at 2% DM, Experiment 1
[14] = Sutter alfalfa hay 200 mg, tannin added at 4% DM, Experiment 1
[15] = Sutter alfalfa hay 200 mg, tannin added at 5% DM, Experiment 2
[16] = Sutter alfalfa hay 200 mg, tannin added at 6% DM, Experiment 1
[17] = Sutter alfalfa hay 200 mg, tannin added at 10% DM, Experiment 2
[18] = Sutter alfalfa hay 200 mg, tannin added at 15% DM, Experiment 2
[19] = Sutter, tannin added at 2% DM, Experiment 1
[20] = Sutter, tannin added at 4% DM, Experiment 1
[21] = Sutter, tannin added at 5% DM, Experiment 2
[22] = Sutter, tannin added at 6% DM, Experiment 1
[23] = Sutter, tannin added at 10% DM, Experiment 2
[24] = Sutter, tannin added at 15% DM, Experiment 2

| SMILES | % Difference from control [1] | % Difference from control [2] | % Difference from control [3] | % Difference from control [4] | % Difference from control [5] [%] | % Difference from control [6] [%] | Net ammonium-N in supernatant [7] | Net ammonium-N in supernatant [8] | Net ammonium-N in supernatant [9] | Net ammonium-N in supernatant [10] | Net ammonium-N in supernatant [11] | Net ammonium-N in supernatant [12] | Net ammonium-N in supernatant [13] | Net ammonium-N in supernatant [14] | Net ammonium-N in supernatant [15] | Net ammonium-N in supernatant [16] | Net ammonium-N in supernatant [17] | Net ammonium-N in supernatant [18] | % Difference from control [19] | % Difference from control [20] [%] | also measured |
| --- | --- | --- | --- | --- | --- | --- | --- | --- | --- | --- | --- | --- | --- | --- | --- | --- | --- | --- | --- | --- | --- |
| O=C(O)c1cc(O)c(O)c(O)c1 [GA, 3,4,5-trihydroxybenzoic acid] | +3.20% | +4.92% | +1.68% | +5.63% | −1.33 | −3.54 | 3.610 (0.338) mg | 3.670 (0.404) mg | 3.450 (0.240) mg | 3.695 (0.305) mg | 3.348 (0.254) mg | 3.273 (0.234) mg | 3.540 (0.432) mg | 3.608 (0.564) mg | 3.415 (0.191) mg | 3.575 (0.431) mg | 3.348 (0.206) mg | 3.298 (0.177) mg | +0.48% | −2.41 | % Difference from control [21]: +0.21%; % Difference from control [22]: +1.48%; % Difference from control [23]: −1.76%; % Difference from control [24]: −3.23%; Effect on ammonia-N (in words): did not show any affect |
| O=C(OC[C@H]1O[C@@H](OC(=O)c2cc(O)c(O)c(OC(=O)c3cc(O)c(O)c(O)c3)c2)[C@H](OC(=O)c2cc(O)c(O)c(OC(=O)c3cc(O)c(O)c(O)c3)c2)[C@@H](OC(=O)c2cc(O)c(O)c(OC(=O)c3cc(O)c(O)c(O)c3)c2)[C@@H]1OC(=O)c1cc(O)c(O)c(OC(=O)c2cc(O)c(O)c(O)c2)c1)c1cc(O)c(O)c(OC(=O)c2cc(O)c(O)c(O)c2)c1 [TA, tannic acid] | −0.66% | −4.00% | −16.23% | −8.52% | −26.23 | −48.57 | 3.475 (0.269) mg | 3.358 (0.231) mg | 2.830 (0.435) mg | 3.200 (0.308) mg | 2.503 (0.177) mg | 1.745 (0.204) mg | 3.168 (0.737) mg | 3.250 (0.424) mg | 3.030 (0.167) mg | 2.998 (0.310) mg | 2.543 (0.208) mg | 1.888 (0.139) mg | −10.08% | −7.75 | % Difference from control [21]: −11.09%; % Difference from control [22]: −14.90%; % Difference from control [23]: −25.38%; % Difference from control [24]: −44.60%; Effect on ammonia-N (in words): effective in reducing ammonia-N |
